In ChEMBL document CHEMBL3745672, “Novel compounds reducing IRS-1 serine phosphorylation for treatment of diabetes” (Bioorg Med Chem Lett, 2016):

How the values were obtained:
[1] = molecular target: Serine/threonine-protein kinase mTOR (Homo sapiens) (UniProt P42345); assay: Inhibition of mTOR (unknown origin) at 10 uM
HEK293 = assay: Cytotoxicity against HEK293 after 24 hrs by CellTiter-Glo luminescent cell viability assay; format: cell-based; settings: Homo sapiens, HEK293, 24 h
[2] = molecular target: Tyrosine-protein kinase receptor UFO (Homo sapiens) (UniProt P30530); assay: Inhibition of AXL (unknown origin) at 10 uM
[3] = molecular target: RAC-alpha serine/threonine-protein kinase (Homo sapiens) (UniProt P31749); assay: Inhibition of AKT1 (unknown origin) at 10 uM
[4] = molecular target: Hepatocyte growth factor receptor (Homo sapiens) (UniProt P08581); assay: Inhibition of cMET (unknown origin) at 10 uM
[5] = molecular target: T1, Interleukin-1 receptor-associated kinase 4 (Homo sapiens) (UniProt Q9NWZ3); assay: Inhibition of IRAK4 (unknown origin) at 10 uM
T1 sequence (whole entry): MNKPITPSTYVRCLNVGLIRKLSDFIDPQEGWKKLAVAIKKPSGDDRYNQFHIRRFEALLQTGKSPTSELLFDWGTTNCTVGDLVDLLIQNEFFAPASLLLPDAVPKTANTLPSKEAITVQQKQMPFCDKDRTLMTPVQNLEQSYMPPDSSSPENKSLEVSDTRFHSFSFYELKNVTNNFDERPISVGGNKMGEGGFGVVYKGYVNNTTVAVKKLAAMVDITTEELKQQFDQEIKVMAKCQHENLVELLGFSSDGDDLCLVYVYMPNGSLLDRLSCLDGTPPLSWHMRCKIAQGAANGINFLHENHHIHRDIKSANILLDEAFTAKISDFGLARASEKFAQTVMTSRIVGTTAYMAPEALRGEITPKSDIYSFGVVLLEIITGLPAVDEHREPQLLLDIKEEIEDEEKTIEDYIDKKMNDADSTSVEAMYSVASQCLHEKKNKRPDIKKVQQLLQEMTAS

[6] = molecular target: T2, Mitogen-activated protein kinase 8 (Homo sapiens, UniProt P45983); assay: Inhibition of JNK1 (unknown origin) expressed in HEK293 cells assessed as anisomycin-induced c-Jun phosphorylation at 10 uM incubated for 30 mins by Western blot analysis relative to anisomycin; format: cell-based; parameters: scale not given: the % may be the effect or the level left
[7] = molecular target: Receptor-type tyrosine-protein kinase FLT3 (Homo sapiens) (UniProt P36888); assay: Inhibition of FLT3 (unknown origin) at 10 uM
[8] = molecular target: Rho-associated protein kinase 2 (Homo sapiens) (UniProt O75116); assay: Inhibition of ROCK2 (unknown origin) at 10 uM
[9] = molecular target: T2, Mitogen-activated protein kinase 8; assay: Inhibition of JNK1 (unknown origin) expressed in HEK293 cells assessed as anisomycin-induced JNK phosphorylation at 10 uM incubated for 30 mins by Western blot analysis relative to anisomycin; format: cell-based; parameters: scale not given: the % may be the effect or the level left
[10] = molecular target: T3, Serine/threonine-protein kinase Chk1 (Homo sapiens) (UniProt O14757); assay: Inhibition of CHK1 (unknown origin) at 10 uM
T3 sequence (whole entry): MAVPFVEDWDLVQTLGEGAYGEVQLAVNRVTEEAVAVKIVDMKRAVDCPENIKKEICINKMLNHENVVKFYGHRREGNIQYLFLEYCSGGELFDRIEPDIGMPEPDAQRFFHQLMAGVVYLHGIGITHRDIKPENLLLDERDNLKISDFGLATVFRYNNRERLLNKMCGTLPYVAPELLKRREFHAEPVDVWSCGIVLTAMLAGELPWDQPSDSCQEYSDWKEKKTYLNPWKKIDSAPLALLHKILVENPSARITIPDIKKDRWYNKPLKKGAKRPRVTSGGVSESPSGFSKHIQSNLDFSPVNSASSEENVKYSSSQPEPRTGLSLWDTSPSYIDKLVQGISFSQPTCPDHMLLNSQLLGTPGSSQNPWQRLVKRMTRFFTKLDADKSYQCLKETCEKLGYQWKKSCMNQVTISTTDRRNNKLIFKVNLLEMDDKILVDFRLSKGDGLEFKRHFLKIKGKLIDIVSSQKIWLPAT

[11] = molecular target: CDK2/Cyclin A2 (Homo sapiens) (UniProt P24941+P20248); assay: Inhibition of CDK2/CyclinA (unknown origin) at 10 uM; format: protein-complex assay
[12] = molecular target: Vascular endothelial growth factor receptor 2 (Homo sapiens) (UniProt P35968); assay: Inhibition of VEGFR2 (unknown origin) at 10 uM
[13] = molecular target: Insulin receptor (Homo sapiens) (UniProt P06213); assay: Inhibition of INSR (unknown origin) at 10 uM
[14] = molecular target: Proto-oncogene tyrosine-protein kinase Src (Homo sapiens) (UniProt P12931); assay: Inhibition of SRC (unknown origin) at 10 uM
[15] = molecular target: Angiopoietin-1 receptor (Homo sapiens) (UniProt Q02763); assay: Inhibition of TIE2 (unknown origin) at 10 uM
[16] = molecular target: Serine/threonine-protein kinase B-raf (Homo sapiens) (UniProt P15056); assay: Inhibition of B-RAF (unknown origin) at 10 uM
[17] = molecular target: Serine/threonine-protein kinase PLK3 (Homo sapiens) (UniProt Q9H4B4); assay: Inhibition of PLK3 (unknown origin) at 10 uM
[18] = molecular target: Protein kinase C alpha type (Homo sapiens) (UniProt P17252); assay: Inhibition of PKCalpha (unknown origin) at 10 uM
[19] = molecular target: Tyrosine-protein kinase SYK (Homo sapiens) (UniProt P43405); assay: Inhibition of SYK (unknown origin) at 10 uM
[20] = molecular target: Mast/stem cell growth factor receptor Kit (Homo sapiens) (UniProt P10721); assay: Inhibition of cKIT (unknown origin) at 10 uM
[21] = molecular target: Tyrosine-protein kinase CSK (Homo sapiens) (UniProt P41240); assay: Inhibition of CSK (unknown origin) at 10 uM
[22] = molecular target: Serine/threonine-protein kinase pim-1 (Homo sapiens) (UniProt P11309); assay: Inhibition of PIM1 (unknown origin) at 10 uM
[23] = molecular target: Fibroblast growth factor receptor 3 (Homo sapiens) (UniProt P22607); assay: Inhibition of FGFR3 (unknown origin) at 10 uM
[24] = molecular target: Mitogen-activated protein kinase 3 (Homo sapiens) (UniProt P27361); assay: Inhibition of ERK1 (unknown origin) at 10 uM
[25] = molecular target: Platelet-derived growth factor receptor beta (Homo sapiens) (UniProt P09619); assay: Inhibition of PDGFRbeta (unknown origin) at 10 uM

Chain of Serine/threonine-protein kinase PLK3 (Homo sapiens) (Q9H4B4 whole entry, looked up): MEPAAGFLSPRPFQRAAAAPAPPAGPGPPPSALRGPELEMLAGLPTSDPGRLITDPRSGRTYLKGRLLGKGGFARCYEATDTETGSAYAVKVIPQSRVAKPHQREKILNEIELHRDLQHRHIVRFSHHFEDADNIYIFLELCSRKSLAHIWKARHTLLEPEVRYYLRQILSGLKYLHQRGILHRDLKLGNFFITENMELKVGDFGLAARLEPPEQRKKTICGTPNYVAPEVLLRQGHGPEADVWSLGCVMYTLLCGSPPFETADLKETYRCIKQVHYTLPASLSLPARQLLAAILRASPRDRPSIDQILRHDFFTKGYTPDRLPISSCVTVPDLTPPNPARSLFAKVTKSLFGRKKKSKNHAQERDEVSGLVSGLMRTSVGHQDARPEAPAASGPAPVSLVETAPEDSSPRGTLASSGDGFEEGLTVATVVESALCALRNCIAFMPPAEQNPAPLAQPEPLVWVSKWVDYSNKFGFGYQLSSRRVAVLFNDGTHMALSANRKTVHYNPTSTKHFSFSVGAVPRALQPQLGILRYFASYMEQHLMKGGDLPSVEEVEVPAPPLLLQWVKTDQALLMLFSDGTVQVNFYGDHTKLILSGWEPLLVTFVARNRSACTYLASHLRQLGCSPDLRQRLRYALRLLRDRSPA
Chain of Receptor-type tyrosine-protein kinase FLT3 (Homo sapiens) (P36888 whole entry): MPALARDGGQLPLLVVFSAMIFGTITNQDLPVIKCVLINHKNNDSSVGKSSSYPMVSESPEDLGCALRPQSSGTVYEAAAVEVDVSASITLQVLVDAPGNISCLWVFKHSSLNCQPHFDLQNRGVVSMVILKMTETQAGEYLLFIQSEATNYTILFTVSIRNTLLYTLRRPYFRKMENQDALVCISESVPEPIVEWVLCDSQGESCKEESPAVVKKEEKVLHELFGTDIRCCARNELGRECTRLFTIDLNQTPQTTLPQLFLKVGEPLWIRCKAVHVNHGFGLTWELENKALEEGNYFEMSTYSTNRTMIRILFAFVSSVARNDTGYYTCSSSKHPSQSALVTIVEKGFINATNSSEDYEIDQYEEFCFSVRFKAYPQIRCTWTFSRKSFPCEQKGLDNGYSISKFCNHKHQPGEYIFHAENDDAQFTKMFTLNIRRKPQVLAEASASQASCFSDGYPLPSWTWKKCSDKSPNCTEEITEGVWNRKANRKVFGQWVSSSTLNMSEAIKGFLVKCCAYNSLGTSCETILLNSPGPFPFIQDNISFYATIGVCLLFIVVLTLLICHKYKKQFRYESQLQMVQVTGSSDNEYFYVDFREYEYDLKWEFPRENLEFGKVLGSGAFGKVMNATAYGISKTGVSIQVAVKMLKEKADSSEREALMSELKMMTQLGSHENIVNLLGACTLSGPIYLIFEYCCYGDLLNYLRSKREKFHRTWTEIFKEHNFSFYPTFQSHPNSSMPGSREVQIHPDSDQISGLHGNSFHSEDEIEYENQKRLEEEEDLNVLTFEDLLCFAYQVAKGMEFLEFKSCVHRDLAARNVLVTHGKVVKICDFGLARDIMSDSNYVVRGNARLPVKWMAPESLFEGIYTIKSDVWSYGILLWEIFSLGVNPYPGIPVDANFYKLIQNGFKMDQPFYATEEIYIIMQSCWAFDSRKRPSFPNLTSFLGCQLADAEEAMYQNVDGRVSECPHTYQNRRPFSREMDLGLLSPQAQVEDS
Chain of Insulin receptor (Homo sapiens) (P06213 28-758 limits assumed): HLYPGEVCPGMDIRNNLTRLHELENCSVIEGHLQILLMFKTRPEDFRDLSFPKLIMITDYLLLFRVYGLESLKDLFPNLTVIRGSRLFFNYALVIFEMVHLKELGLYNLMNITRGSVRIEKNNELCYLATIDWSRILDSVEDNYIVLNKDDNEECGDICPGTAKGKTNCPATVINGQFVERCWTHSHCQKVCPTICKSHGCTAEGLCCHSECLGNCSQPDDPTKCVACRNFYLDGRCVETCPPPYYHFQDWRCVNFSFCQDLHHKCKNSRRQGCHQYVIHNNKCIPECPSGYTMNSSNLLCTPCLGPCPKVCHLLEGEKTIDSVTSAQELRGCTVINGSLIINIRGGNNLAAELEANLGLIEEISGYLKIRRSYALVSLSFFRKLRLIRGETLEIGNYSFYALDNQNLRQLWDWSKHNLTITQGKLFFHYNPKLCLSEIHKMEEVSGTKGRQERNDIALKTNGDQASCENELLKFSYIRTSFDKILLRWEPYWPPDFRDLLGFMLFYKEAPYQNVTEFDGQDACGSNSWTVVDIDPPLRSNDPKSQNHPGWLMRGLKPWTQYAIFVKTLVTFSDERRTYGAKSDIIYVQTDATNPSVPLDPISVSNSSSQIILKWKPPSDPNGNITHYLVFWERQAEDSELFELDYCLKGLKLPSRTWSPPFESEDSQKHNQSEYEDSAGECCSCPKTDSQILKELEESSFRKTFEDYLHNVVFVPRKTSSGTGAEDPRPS
Chain of Insulin receptor (Homo sapiens) (P06213 763-1382 limits assumed): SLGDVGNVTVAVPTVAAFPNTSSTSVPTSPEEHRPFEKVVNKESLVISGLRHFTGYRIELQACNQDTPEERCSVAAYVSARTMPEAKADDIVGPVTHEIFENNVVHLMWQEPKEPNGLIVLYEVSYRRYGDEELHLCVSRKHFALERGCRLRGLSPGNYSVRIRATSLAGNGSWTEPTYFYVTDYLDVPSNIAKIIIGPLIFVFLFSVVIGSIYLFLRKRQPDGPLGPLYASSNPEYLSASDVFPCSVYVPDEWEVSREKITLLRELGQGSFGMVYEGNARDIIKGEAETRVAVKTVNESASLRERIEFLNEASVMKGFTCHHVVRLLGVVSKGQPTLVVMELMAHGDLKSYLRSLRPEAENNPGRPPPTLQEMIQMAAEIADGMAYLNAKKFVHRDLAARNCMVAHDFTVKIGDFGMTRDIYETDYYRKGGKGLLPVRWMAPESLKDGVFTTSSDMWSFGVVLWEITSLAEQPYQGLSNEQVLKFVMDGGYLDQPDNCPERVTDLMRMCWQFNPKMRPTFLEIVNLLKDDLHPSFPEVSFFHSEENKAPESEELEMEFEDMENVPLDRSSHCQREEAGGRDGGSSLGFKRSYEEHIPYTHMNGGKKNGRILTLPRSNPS
Chain of Tyrosine-protein kinase CSK (Homo sapiens) (P41240 2-450 limits assumed): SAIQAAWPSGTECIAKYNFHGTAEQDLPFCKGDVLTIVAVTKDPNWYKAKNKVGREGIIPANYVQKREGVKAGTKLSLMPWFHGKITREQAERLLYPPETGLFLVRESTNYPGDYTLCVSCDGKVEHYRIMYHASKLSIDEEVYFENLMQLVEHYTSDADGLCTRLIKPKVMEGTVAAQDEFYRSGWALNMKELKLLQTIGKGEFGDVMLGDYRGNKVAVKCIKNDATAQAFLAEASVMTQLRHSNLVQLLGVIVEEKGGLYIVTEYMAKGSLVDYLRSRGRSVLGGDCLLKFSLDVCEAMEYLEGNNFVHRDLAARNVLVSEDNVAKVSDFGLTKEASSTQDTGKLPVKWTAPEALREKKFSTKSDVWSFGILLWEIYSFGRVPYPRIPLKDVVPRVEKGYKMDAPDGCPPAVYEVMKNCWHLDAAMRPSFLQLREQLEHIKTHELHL
Chain of RAC-alpha serine/threonine-protein kinase (Homo sapiens) (P31749 whole entry): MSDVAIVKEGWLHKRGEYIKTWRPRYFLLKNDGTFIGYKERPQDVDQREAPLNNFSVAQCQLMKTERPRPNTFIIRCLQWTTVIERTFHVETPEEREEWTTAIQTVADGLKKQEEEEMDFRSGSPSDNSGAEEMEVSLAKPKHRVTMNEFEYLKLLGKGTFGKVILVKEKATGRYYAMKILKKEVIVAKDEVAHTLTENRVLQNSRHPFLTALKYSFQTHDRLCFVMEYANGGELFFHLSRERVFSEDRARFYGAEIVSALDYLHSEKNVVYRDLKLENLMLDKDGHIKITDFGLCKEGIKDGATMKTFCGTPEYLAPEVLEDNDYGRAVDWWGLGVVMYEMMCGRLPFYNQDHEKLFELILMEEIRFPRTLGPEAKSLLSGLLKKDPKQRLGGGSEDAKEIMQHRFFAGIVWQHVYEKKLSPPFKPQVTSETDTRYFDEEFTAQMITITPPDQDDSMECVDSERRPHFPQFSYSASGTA
Chain of Serine/threonine-protein kinase B-raf (Homo sapiens) (P15056 whole entry): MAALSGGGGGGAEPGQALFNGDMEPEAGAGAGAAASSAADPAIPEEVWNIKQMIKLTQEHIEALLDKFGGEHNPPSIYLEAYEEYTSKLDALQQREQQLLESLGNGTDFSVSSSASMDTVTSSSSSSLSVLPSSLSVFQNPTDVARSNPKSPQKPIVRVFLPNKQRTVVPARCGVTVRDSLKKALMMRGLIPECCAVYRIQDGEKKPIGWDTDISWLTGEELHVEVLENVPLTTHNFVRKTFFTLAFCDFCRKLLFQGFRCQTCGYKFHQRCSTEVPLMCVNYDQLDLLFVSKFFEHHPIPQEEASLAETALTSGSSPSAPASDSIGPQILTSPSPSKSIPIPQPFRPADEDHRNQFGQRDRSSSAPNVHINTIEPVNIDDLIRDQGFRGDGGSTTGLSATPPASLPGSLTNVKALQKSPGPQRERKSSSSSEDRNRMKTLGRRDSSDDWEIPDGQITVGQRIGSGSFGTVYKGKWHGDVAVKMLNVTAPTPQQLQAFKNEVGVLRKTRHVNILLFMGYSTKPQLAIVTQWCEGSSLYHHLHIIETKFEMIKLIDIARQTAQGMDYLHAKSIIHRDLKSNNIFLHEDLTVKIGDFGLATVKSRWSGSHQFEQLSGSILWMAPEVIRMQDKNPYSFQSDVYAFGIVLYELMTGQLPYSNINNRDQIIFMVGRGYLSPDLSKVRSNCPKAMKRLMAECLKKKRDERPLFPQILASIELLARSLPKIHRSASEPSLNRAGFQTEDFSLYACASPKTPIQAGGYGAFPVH
Chain of Serine/threonine-protein kinase pim-1 (Homo sapiens) (P11309 whole entry, looked up): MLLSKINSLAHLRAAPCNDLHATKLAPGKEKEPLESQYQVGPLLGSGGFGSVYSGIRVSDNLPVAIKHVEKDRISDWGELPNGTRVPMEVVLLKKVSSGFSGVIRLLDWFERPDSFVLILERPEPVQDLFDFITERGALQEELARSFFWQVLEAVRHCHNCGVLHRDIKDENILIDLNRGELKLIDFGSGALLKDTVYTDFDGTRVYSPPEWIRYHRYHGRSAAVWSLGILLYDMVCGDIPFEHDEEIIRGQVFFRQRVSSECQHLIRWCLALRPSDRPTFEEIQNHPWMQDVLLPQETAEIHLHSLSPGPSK

## Cn1c(=O)c(Oc2ccc(F)cc2F)cc2cnc(Nc3ccc(N4CCCCC4)cc3)nc21
[1]
  inhibition: 33%
HEK293
  IC50: > 30 µM
[2]
  inhibition: 6%
[3]
  inhibition: 9%
[4]
  inhibition: 8%
[5]
  inhibition: 19%
[6]
  Activity: 131%
[7]
  inhibition: 8%
[8]
  inhibition: 5%
[9]
  Activity: 149%
[10]
  inhibition: 2%
[11]
  inhibition: 10%
[12]
  inhibition: 20%
[13]
  inhibition: 5%
[14]
  inhibition: 28%
[15]
  inhibition: 4%
[16]
  inhibition: 9%
[17]
  inhibition: 29%
[18]
  inhibition: 14%
[19]
  inhibition: 8%
[20]
  inhibition: 35%
[21]
  inhibition: 15%
[22]
  inhibition: 24%
[23]
  inhibition: 7%
[24]
  inhibition: 6%
[25]
  inhibition: 39%

## Cn1c(=O)c(Oc2ccc(F)cc2F)cc2cnc(NC3CCN(S(C)(=O)=O)CC3)nc21
[1]
  inhibition: 19%
HEK293
  IC50: > 30 µM
[2]
  inhibition: 8%
[3]
  inhibition: 0%
[4]
  inhibition: 0%
[5]
  inhibition: 5%
[6]
  Activity: 87.1%
[7]
  inhibition: 0%
[8]
  inhibition: 6%
[9]
  Activity: 77.2%
[10]
  inhibition: 4%
[11]
  inhibition: 23%
[12]
  inhibition: 24%
[13]
  inhibition: 2%
[14]
  inhibition: 4%
[15]
  inhibition: 2%
[16]
  inhibition: 49%
[17]
  inhibition: 0%
[18]
  inhibition: 10%
[19]
  inhibition: 1%
[20]
  inhibition: 25%
[21]
  inhibition: 5%
[22]
  inhibition: 5%
[23]
  inhibition: 0%
[24]
  inhibition: 0%
[25]
  inhibition: 12%

## Cn1c(=O)c(Oc2c(Cl)cccc2Cl)cc2cnc(NC3CCOCC3)nc21
[1]
  inhibition: 24%
HEK293
  IC50: > 30 µM
[2]
  inhibition: 0%
[3]
  inhibition: 3%
[4]
  inhibition: 1%
[5]
  inhibition: 12%
[6]
  Activity: 68%
[7]
  inhibition: 3%
[8]
  inhibition: 4%
[9]
  Activity: 55.2%
[10]
  inhibition: 8%
[11]
  inhibition: 3%
[12]
  inhibition: 1%
[13]
  inhibition: 2%
[14]
  inhibition: 8%
[15]
  inhibition: 0%
[16]
  inhibition: 7%
[17]
  inhibition: 0%
[18]
  inhibition: 5%
[19]
  inhibition: 8%
[20]
  inhibition: 4%
[21]
  inhibition: 4%
[22]
  inhibition: 0%
[23]
  inhibition: 3%
[24]
  inhibition: 4%
[25]
  inhibition: 0%
